According to patent US9790218B2, “Small molecule activators of calcium-activated chloride channels and methods of use” (The Regents of the University of California, priority 2011, dated 2017):

How the values were obtained:
[1] = system: CF human bronchial epithelial (CF HBE) cells; test: Short-circuit current in CF HBE cells; format: cell-based
Procedure: FIG. 5A-B. Airway epithelial chloride secretion. FIG. 5A. Short-circuit current in CF HBE cells. Eact and UTP (100 μM) were added in control (left) and IL-4 (10 ng/ml, 24 h, middle) treated CF HBE cells. (right) Summary of Eact-induced, T16Ainh-A01-sensitive peak current (mean±S.E., n=6-8, * P<0.05). ENaC was inhibited by 10 μM amiloride. FIG. 5B. Eact (10 μM) and UTP (100 μM) induced CaCC Cl^− current measured in primary cultures of non-CF human tracheal gland (HTG) serous cells. (left and gmiddle) TMEM16A, CFTR and ENaC were inhibited by pretreatment with T16Ainh-A01, CFTRinh-172 and amiloride, respectively. Inset: TMEM16A immunoblot in whole cell homogenates of CF HBE and HTG cells. (right) Summary of UTP and Eact-induced peak current in the presence and absence of T16Ainh-A01 (mean±S.E., n=3, * P<0.05).
Tracheal and bronchial tissues were obtained from non-CF and CF patients following lung transplantation or from postmortem examinations performed within 24 h after death. […]
Snapwell inserts containing TMEM16A-expressing FRT, HBE, CF HBE or HTG cells were mounted in Ussing chambers (Physiologic Instruments, San Diego, Calif.). […] Apical membrane current (for FRT cells) and short-circuit current were measured using an EVC4000 Multi-Channel V/I Clamp (World Precision Instruments, Sarasota, Fla.) and recorded using PowerLab/8sp (AD Instruments, Castle Hill, Australia).

[2] = system: human bronchi submucosal glands; test: Airway submucosal gland fluid secretion in human bronchi; conditions: 30 μM T16Ainh-A01
Procedure: FIG. 6A-C. Airway submucosal gland fluid secretion in human bronchi. FIG. 6A. TMEM16A immunohistochemistry in CF (left) and non-CF (right) human bronchi showing apical membrane expression in serous gland epithelial cells (arrows). Scale bar: 20 μm. FIG. 6B. Mucous (fluid) secretion in human bronchi. (top) Images of mucus bubbles formed under oil in response to basolateral application of 300 nM carbachol (CCh) and 20 μM Eact. TMEM16A was inhibited by 30 μM T16Ainh-A01. Individual fluid bubbles marked with arrowheads. Scale bar: 0.5 mm. (bottom) CCh and Eact-induced secretion rates. Where indicated, tissues were pre-treated with T16Ainh-A01 (30 μM). Each point is the average of measurements made from 20 glands (mean±S.E. * P<0.05). FIG. 6C. Summary of human gland fluid secretion rates measured at 20 min after addition of 20 μM Eact, and 30 min after application of 300 nM carbachol (CCh) and 10 μM forskolin (20-66 glands from 3 tracheas and 4 bronchus). In CF-bronchi, 6 glands from one donor were stimulated by Eact. […]
Similar staining was found in non-CF and CF human bronchi. Fluid secretion was measured in individual submucosal glands from the increasing size of mucus (fluid) bubbles in which airway fragments were mounted in a 37° C. perfusion chamber and the mucosal solution was covered with oil.

[3] = system: mouse ileal smooth muscle; test: Intestinal smooth muscle contraction, ex vivo mouse ileal segments; conditions: T16Ainh-A01 10 μM
Procedure: FIG. 8A-C. Intestinal smooth muscle contraction. FIG. 8A. Representative traces from mouse ileal segments showing effects of T16Ainh-A01 (10 μM), carbachol (CCh, 1 μM) and Eact (10 μM). FIG. 8B. Effect of CCh (1 μM) and Eact (10 μM) following atropine (1 μM). FIG. 8C. Summary of contraction frequency (left), and resting and maximum tone (right) (mean±S.E., n=4-7, * P<0.05).
Wild type CD1 mice (age 8-10 weeks) were killed by avertin overdose (200 mg/kg). The ileum removed and washed with ice-cold HCO3^−-buffered solution. The ends of the ileal segments were tied with silk thread and connected to a force transducer. Beal segments were equilibrated for 60 min with a resting force of ˜1 mN, with changes of the bathing solution every 15 min. Tension was monitored continuously with a fixed-range precision force transducer (TSD, 125 C; Biopac, Goleta, Calif.) connected to a differential amplifier (DA 100B; Biopac). Data were recorded using MP100, Biopac digital acquisition system and analyzed using Acknowledge 3.5.7 software.
TMEM16A in expressed in the interstitial cells of Cajal, the pacemaker cells that control smooth muscle contraction dynamics in stomach and intestine (Huang et al., supra; Gomez-Pinilla et al. (2009) Am. J. Physiol. Gastrointest. Liver Physiol. 296, G1370-1381). The effect of Eact on mouse ileal smooth muscle contraction was investigated using an ex vivo intestinal preparation. […] Without wishing to be bound by theory, the constitutive TMEM16A activity in this ex vivo preparation could obscure Eact activity. To reveal Eact effects, atropine was first added to inhibit basal contractions. […] FIG. 8C summarizes data on contraction frequency, resting tone and maximal tone.

`CCc1c(C)nc(SCC(=O)Nc2nc(-c3ccc(OC)cc3)cs2)[nH]c1=O` [T16Ainh-A01, reference compound] was tested, and the “block of Eact-induced Cl^− current in IL-4 treated CF bronchial cells” value [1] was “blocked”, the “effect of pre-treatment on gland fluid secretion” value [2] was “abolished basal and agonist-stimulated gland fluid secretion” and the “spontaneous intestinal contractions at baseline” value [3] was “inhibited”.
